What was measured:
[1] = biological target: human recombinant dopamine D3 receptor (Homo sapiens (Human), UniProt P35462); assay: Test of binding inhibition for the human dopamine D3 receptor ([3H]-Metylspiperone SPA binding); conditions: [3H]-Metylspiperone 2 nM, Jump-In HEK cell membranes, read-out: hD3_Ki
Description: Cell membranes: Jump-In HEK cell membranes expressing human recombinant dopamine D3 receptor (4 μg/well)
(§1) Non-specific ligand: (final concentration) 10 μM Butaclamol [(+)-Butaclamol Hydrochioride, D033, Sigma]
(§2) SPA beads: SPA beads [WGA PVT SPA Scintillatiion Beads, RPNQ0001 (500 mg), RPNQ0060 (2 g), PerkinElmer] (0.2 mg/well)
(§3) Incubation time and temperature: 120 min at 25° C.
(§4) Butaclamol or the compounds of the present invention were weighed and DMSO was added to make a 10 mM solution. This solution was diluted to each concentration.
[^3H]-Metylspiperone was weighed and the buffer solution was added to make a 6 nM solution.
(§5) SPA beads were weighed and stirred in water to make a 50 mg/mL solution. Using this solution, a mixed solution with the cell membranes was prepared.
Jump-In HEK Cell membranes (final reaction amount: 4 μg/well), SPA beads (final reaction amount: 0.2 mg/well) and Tris-HCl buffer were mixed and the mixed solution was left still for more than 60 min at 4° C. Then, 50 μL of the mixture was added to each well of the plate. In addition, 25 μL of 6 nM [^3H]-Metylspiperone (final concentration: 2 nM) was added to each well. […] Non-specific binding was calculated based on the radioactivity of [^3H]-Metylspiperone in the presence of 10 μM non-labeled Butaclamol. The total binding was calculated based on the radioactivity of [^3H]-Metylspiperone in the absence of the compounds of the present invention (Vehicle). The Ki values were calculated from dose-response curves.
(§6) Binding activities of the compounds of the present invention were calculated from the following Binding Inhibition Rate (%): Inhibition Rate (%)=[1−(c−a)(b−a)]×100(%) • a: Average cpm of non-specific binding • b: Average cpm of total binding • c: Cpm in the presence of each test compound

[2] = biological target: human recombinant dopamine D2 receptor (Homo sapiens (Human), UniProt P14416); assay: Test of binding inhibition for the human dopamine D2 receptor ([3H]-Metylspiperone SPA binding); conditions: [3H]-Metylspiperone 1.2 nM, Jump-In HEK cell membranes, read-out: hD2_Ki
Chain of human recombinant dopamine D2 receptor (P14416 whole entry): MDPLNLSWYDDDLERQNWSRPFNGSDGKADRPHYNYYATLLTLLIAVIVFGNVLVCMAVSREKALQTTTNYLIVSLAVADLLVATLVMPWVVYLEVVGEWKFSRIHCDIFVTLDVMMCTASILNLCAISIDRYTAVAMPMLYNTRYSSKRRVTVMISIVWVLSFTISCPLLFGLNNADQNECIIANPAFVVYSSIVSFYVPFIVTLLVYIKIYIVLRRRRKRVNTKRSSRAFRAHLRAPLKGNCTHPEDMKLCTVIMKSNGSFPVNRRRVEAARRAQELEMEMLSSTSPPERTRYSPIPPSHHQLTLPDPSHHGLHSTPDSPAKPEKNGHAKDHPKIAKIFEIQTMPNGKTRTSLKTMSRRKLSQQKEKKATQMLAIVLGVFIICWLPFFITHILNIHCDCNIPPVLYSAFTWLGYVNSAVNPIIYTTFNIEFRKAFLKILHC
Description: Cell membranes: Jump-In HEK cell membranes expressing human recombinant dopamine D2 receptor (2 μg/well)
Buffer solution: 50 mM Tris-HCl (35409-45, Nacalai Tesque) (pH 7.4) containing 120 mM NaCl (31320-05, Nacalai Tesque), 1 mM MgCl2.6H2O (20909-55, Nacalai Tesque), 5 mM KCl (28514-75, Nacalai Tesque) and 2 mM CaCl2 (067-31, Nacalai Chemical, Ltd)
Radioligand: (final concentration) 1.2 nM [^3H]-Metylspiperone ([^3H—N-methyl-]-Metylspiperone, NET-856, 83.8 Ci/mmol, PerkinElmer)
as §1, §2, §3, §4
[^3H]-Metylspiperone was weighed and the buffer solution was added to make a 3.6 nM solution.
as §5
225 nL of the solutions of the non-specific ligand or the compounds of the present invention at each concentration (in case of vehicle, final concentration 0.3% DMSO) were added in each well of a 384-well white/clear bottom microplate (3706, Corning). Jump-In HEK Cell membranes (final reaction amount: 2 μg protein/well), SPA beads (final reaction amount: 0.2 mg/well) and the buffer were mixed and the mixed solution was left still for more than or equal to 1 h at 4° C. Then, 50 μL of the mixture was added to each well of the plate. In addition, 25 μL of 3.6 nM [^3H]-Metylspiperone (final concentration: 1.2 nM) was added to each well. The plate was sealed by putting TopSeal-A 96/384 well (6050185, PerkinElmer) on the top of the plate, mixed using stirring deaerator (Welltornado, FK-62, Sakaki) and incubated for 120 min at 25° C. After incubation, the radioactivity of [^3H]-Metylspiperone which was binded to D2 receptor was determined by liquid scintillation counter (1450 Microbeta, PerkinElmer) in each well. Non-specific binding was calculated based on the radioactivity of [^3H]-Metylspiperone in the presence of 10 μM non-labeled Butaclamol. The total binding was calculated using the radioactivity of [^3H]-Metylspiperone in the absence of the compounds of the present invention (Vehicle). The Ki values were calculated from dose-response curves.
as §6

Chain of human recombinant dopamine D3 receptor (P35462 whole entry): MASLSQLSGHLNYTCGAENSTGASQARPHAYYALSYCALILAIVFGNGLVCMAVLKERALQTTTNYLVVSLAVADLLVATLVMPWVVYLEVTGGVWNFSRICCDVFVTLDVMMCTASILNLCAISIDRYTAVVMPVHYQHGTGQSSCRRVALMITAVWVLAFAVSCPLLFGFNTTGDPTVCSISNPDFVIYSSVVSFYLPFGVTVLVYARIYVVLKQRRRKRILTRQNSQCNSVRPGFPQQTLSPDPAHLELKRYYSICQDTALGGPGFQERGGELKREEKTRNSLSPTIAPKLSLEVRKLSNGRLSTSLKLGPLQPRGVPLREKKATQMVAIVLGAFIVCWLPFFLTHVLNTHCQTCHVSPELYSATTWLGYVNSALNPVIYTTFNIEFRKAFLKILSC

SMILES | Ki [1] | Ki [2]
Cc1nc(CC(=O)N[C@H]2CC[C@H](CCN3CCc4nc(CCC(F)(F)F)sc4CC3)CC2)no1 [II-019] | 2.3 nM | > 1800 nM
O=C(N[C@H]1CC[C@H](CCN2CCc3sc(OCC(F)(F)F)nc3C2)OC1)c1cccc2ncccc12 [Compound I-142] | 0.72 nM | 650 nM
O=C(N[C@H]1CC[C@H](CCN2CCc3sc(Cc4ccccc4)nc3C2)CC1)c1cccc2ncccc12 [Compound I-014] | 1.3 nM | > 1700 nM
Cn1c(C#N)cc2c1CCN(CC[C@H]1CC[C@H](NC(=O)c3cccc4ncccc34)CC1)C2 [Compound I-052] | 1 nM | 1100 nM
Cc1ncc(CC(=O)N[C@H]2CC[C@H](CCN3CCc4ccc(OC5CCOC5)nc4CC3)CC2)s1 (some centres unmarked) [III-052] | 1.1 nM | > 1800 nM
Cc1ncc(OCC(=O)N[C@H]2CC[C@](F)(CCN3CCc4ccc(OCC(F)(F)F)nc4CC3)CC2)cn1 [III-088] | 0.31 nM | 310 nM
CC(F)(F)COc1nc2c(s1)CCN(CC[C@H]1CC[C@H](NC(=O)c3cccc4ncccc34)CC1)C2 [Compound I-071] | 0.13 nM | 150 nM
Cn1cc2c(C(=O)N[C@H]3CC[C@H](CCN4CCc5nc(OCC(F)(F)F)sc5CC4)CC3)cccc2n1 [II-046] | 0.2 nM | 1200 nM
Cn1cc2c(C(=O)N[C@H]3CC[C@H](CCN4CCc5ccc(C6CC6)nc5CC4)CC3)cccc2n1 [III-074] | 0.66 nM | > 1800 nM
Cn1cc2c(C(=O)N[C@H]3CC[C@H](CCN4CCc5ccc(OCC(F)F)nc5CC4)CC3)cccc2n1 [II-057] | 0.014 nM | > 1700 nM
CC(Oc1nc2c(s1)CCN(CC[C@H]1CC[C@H](NC(=O)c3cccc4nn(C)cc34)CC1)CC2)C(F)(F)F (some centres unmarked) [III-063] | 0.13 nM | > 1900 nM
CC(C)C(=O)N[C@H]1CC[C@H](CCN2CCc3nc(OCC(F)(F)F)sc3CC2)CC1 [III-031] | 0.31 nM | 240 nM
Cc1cc(OCC(=O)N[C@H]2CC[C@](F)(CCN3CCc4ccc(OCC(F)(F)F)nc4CC3)CC2)no1 [III-104] | 0.53 nM | > 1700 nM
Cc1cc(OCC(=O)N[C@H]2CC[C@H](CCN3CCc4ccc(OCC(F)(F)F)nc4CC3)CC2)no1 [II-078] | 0.075 nM | > 1800 nM
O=C(CCC(F)(F)F)N[C@H]1CC[C@H](CCN2CCc3nc(CCC(F)(F)F)sc3CC2)CC1 [II-018] | 2.7 nM | > 1800 nM
COc1cc(CC(=O)N[C@H]2CC[C@H](CCN3CCc4ccc(OCC(F)(F)F)nc4CC3)CC2)on1 [II-077] | 0.095 nM | > 1800 nM
Cn1cc2c(C(=O)N[C@H]3CC[C@H](CCN4CCc5ccc(OCC(F)(F)F)nc5CC4)OC3)cccc2n1 [II-087] | 0.059 nM | 260 nM
O=C(N[C@H]1CC[C@H](CCN2CCc3sc(C4=CCOCC4)nc3C2)CC1)c1cccc2ncccc12 [Compound I-001] | 11 nM | > 1700 nM
Cn1c(C(=O)N[C@H]2CC[C@H](CCN3CCc4nc(OCC(F)(F)F)sc4CC3)CC2)cccc1=O [III-128] | 0.12 nM | 370 nM
Cc1ncc(CC(=O)N[C@H]2CC[C@H](CCN3CCc4nc(OCC5CC5)sc4CC3)CC2)s1 [II-090] | 0.64 nM | > 1900 nM

The remaining lines, values ahead:

Ki [1] | Ki [2] | SMILES
1.2 nM | > 1800 nM | Cn1cc(CC(=O)N[C@H]2CC[C@H](CCN3CCc4sc(COC(F)(F)F)nc4C3)CC2)cn1 [III-622]
1.2 nM | 1100 nM | Cc1ncccc1C(=O)N[C@H]1CC[C@H](CCN2CCc3nc(OCC(F)F)sc3CC2)CC1 [III-271]
0.29 nM | 500 nM | Cn1cc2c(C(=O)N[C@H]3CC[C@H](CCN4CCc5sc(N6CC(F)(F)C6)nc5C4)CC3)cccc2n1 [III-439]
0.91 nM | > 1700 nM | CC(CF)Oc1nc2c(s1)CCN(CC[C@H]1CC[C@H](NC(=O)c3cccc4nn(C)cc34)CC1)CC2 (some centres unmarked) [III-159]
0.34 nM | > 1700 nM | Cn1cc2c(C(=O)N[C@H]3CC[C@H](CCN4CCc5nc(O[C@H]6C[C@H](F)C6)sc5CC4)CC3)cccc2n1 [III-158]
0.64 nM | 800 nM | Cn1cc(CC(=O)N[C@H]2CC[C@H](CCN3CCc4sc(OCC(C)(F)F)nc4C3)CC2)c(F)n1 [III-547]
0.78 nM | 1100 nM | Cc1cnc(CC(=O)N[C@H]2CC[C@H](CCN3CCc4nc(OCC(F)(F)F)sc4CC3)OC2)o1 [III-220]
0.22 nM | 560 nM | Cc1ncc(CC(=O)N[C@H]2CC[C@](F)(CCN3CCc4nc(OCC(F)(F)F)sc4CC3)CC2)o1 [III-262]
0.24 nM | 170 nM | Cn1cc2c(C(=O)N[C@H]3CC[C@H](CCN4CCc5sc(OCC(C)(F)F)nc5C4)CC3)cccc2n1 [III-441]
0.051 nM | 290 nM | Cc1nc(/C=C/C(=O)N[C@H]2CC[C@H](CCN3CCc4sc(N5CC(F)(F)C5)nc4C3)CC2)cs1 [III-706]
0.086 nM | 120 nM | CCN1Cc2c(C(=O)N[C@H]3CC[C@H](CCN4CCc5ccc(OCC(F)(F)F)nc5CC4)OC3)cccc2C1=O [III-236]
0.057 nM | 44 nM | Cn1cc(/C=C/C(=O)N[C@H]2CC[C@H](CCN3CCc4nc(OCC(F)(F)F)sc4CC3)CC2)cn1 [III-138]
0.37 nM | 920 nM | Cn1cc2c(C(=O)N[C@H]3CC[C@H](CCN4CCc5sc(CCC(C)(F)F)nc5C4)CC3)cccc2n1 [III-642]
0.6 nM | 1100 nM | Cn1cc2ccc(C(=O)N[C@H]3CC[C@H](CCN4CCc5nc(OCC(F)F)sc5CC4)CC3)cc2n1 [III-270]
0.99 nM | 640 nM | Cn1cc(CC(=O)N[C@H]2CC[C@H](CCN3CCc4ccc(OCC(F)(F)F)nc4CC3)OC2)cn1 [III-230]
0.16 nM | > 1900 nM | Cn1ccc2c(C(=O)N[C@H]3CC[C@H](CCN4CCc5sc(OCC(C)(F)F)nc5C4)CC3)cccc2c1=O [III-630]
0.2 nM | 210 nM | Cn1cc2c(C(=O)N[C@H]3CC[C@H](CCN4CCc5sc(OCC(C)(F)F)nc5C4)CC3)ccc(F)c2n1 [III-666]
0.72 nM | 460 nM | Cc1nc(CC(=O)N[C@H]2CC[C@H](CCN3CCc4nc(OCC(F)(F)F)sc4CC3)OC2)no1 [III-180]
0.68 nM | 650 nM | Cn1cc(OCC(=O)N[C@H]2CC[C@H](CCN3CCc4nc(OCC(F)(F)F)sc4CC3)OC2)cn1 [III-175]
0.4 nM | 310 nM | Cc1ncccc1C(=O)N[C@H]1CC[C@H](CCN2CCc3sc(OCC(C)(F)F)nc3C2)CC1 [III-555]
0.23 nM | 220 nM | CN1Cc2c(C(=O)N[C@H]3CC[C@H](CCN4CCc5sc(CCC(F)(F)F)nc5C4)CC3)cccc2C1=O [III-697]
0.44 nM | 610 nM | Cc1ncccc1C(=O)N[C@H]1CC[C@H](CCN2CCc3sc(OCC(F)(F)F)nc3C2)CC1 [III-603]
0.39 nM | 340 nM | Cn1cc(OCC(=O)N[C@H]2CC[C@](F)(CCN3CCc4nc(OCC(F)(F)F)sc4CC3)CC2)cn1 [III-268]
0.32 nM | 350 nM | Cn1cc(OCC(=O)N[C@H]2CC[C@H](CCN3CCc4sc(OCC(C)(F)F)nc4C3)CC2)cn1 [III-573]
0.11 nM | 500 nM | O=C1Cc2cccc(C(=O)N[C@H]3CC[C@H](CCN4CCc5nc(OCC(F)F)sc5CC4)CC3)c2N1 [III-280]
1.3 nM | > 1700 nM | Cc1ncc(CC(=O)N[C@H]2CC[C@H](C(F)CN3CCc4ccc(OCC(F)(F)F)nc4CC3)CC2)s1 (some centres unmarked) [III-216]
